Measured values: patent US20230373972A1, “PIPERAZINE DERIVATIVE, PREPARATION METHOD THEREFOR AND USE THEREOF” (Zhejiang Hisun Pharmaceutical Co., Ltd., priority 2020, published 2023)
Like-named read-outs stand apart in the source and are kept apart here.

Tests used:
[1] = Metabolic stability in mouse liver microsomes; assay type: in vitro ADME
Procedure: (§1) The experiment was intended to study the metabolic stability of the compounds of the present invention in dog and mouse liver microsomes.
(§2) A test compound and the compound of Comparative Example 1 were incubated with dog and mouse liver microsomes (the Corning Company. USA) respectively, and a coenzyme NADPH was added to start the reaction. 135 μL of acetonitrile containing an internal standard (IS) was added to wells of a corresponding plate after 0, 5, 15, 30 and 45 minutes respectively to terminate the reaction. After protein precipitation, the solution was centrifuged at 5.594 rpm for 15 minutes, and a supernatant was taken. The supernatant was diluted with water by 1:1 (volume ratio) and then analyzed by a LC-MS/MS method. Ketanserin was used as an internal reference compound, and two copies of Ketanserin were incubated in parallel.
(§3) A peak area ratio of analyte/internal standard (Aanalyte/A1s) was obtained by an instrument, and a remaining percentage (% Control) was calculated by ratios of Aanalyte/A1s in a sample at a non-zero time point and a sample at a zero time point. Ln (% Control) was plotted and fitted linearly with the incubation time. A scavenging constant (k, min^−1) and a scavenging half-life (T1/2, min) of the tested compound were calculated by the following equation.

human plasma = assay: In-vitro anticoagulation on human plasma (APTT kit, coagulation time); settings: concentration of the compound when the coagulation time (APTT) was prolonged twice
[2] = Pharmacokinetics in ICR mouse; assay type: in vivo; settings: male, plasma; for AUC(0-t): read-out: Curve area AUC0-t; for half-life: read-out: Half-life period T1/2(h) (converted)
Procedure: Taking an ICR mouse as a tested animal, the ICR mouse was administrated with the compound in Example 96 of the present invention by intravenous injection and intragastric administration, and drug concentrations in plasma at different times were determined by a LC/MS/MS method to study pharmacokinetic characteristics of the compound of the present invention in the mouse.
ICR mice, male, 29.2 g to 34.9 g, purchased from Beijing Vital River Laboratory Animal Technology Co., Ltd.
Preparation of drug administrated by intravenous injection: a proper amount of compound to be tested was added to a proper amount of DMAC: (30% Soltol HS 15): Saline=10%: 10%: 80% (v/v/v), and shaken in a vortex manner, so as to prepare a final solution with a concentration of 0.2 mg/mL.
Preparation of drug administrated by intragastric administration: a proper amount of compound to be tested was added to a proper amount of DMA: (30% Soltol HS 15): Saline=10%: 10%: 80% (v/v/v), and shaken in a vortex manner, so as to prepare a final solution with a concentration of 0.5 mg/mL.
ICR mice were divided into an intravenous injection group and an intragastric administration group (9 rats in single group).
Intravenous injection group: the drug was administrated by intravenous injection (according to a dosage of 1 mg/kg and a volume of 5 mL/kg) without fasting.
Intragastric administration group: the drug was administrated by intragastric administration (according to a dosage of 5 mg/kg and a volume of 10 mL/kg) after fasting overnight, and food was taken 4 hours after administration.
Intravenous injection group: about 80 μL of blood was collected into an EDTA-K2 anticoagulant tube through an orbit 0.083 hour, 0.25 hour, 0.5 hour, 1 hour, 2 hours, 4 hours, 8 hours, 12 hours and 24 hours after administration.
Intragastric administration group: about 80 μL of blood was collected through an orbit 0.25 hour, 0.5 hour, 1 hour, 2 hours, 4 hours, 8 hours, 12 hours and 24 hours before and after administration.
The whole blood sample was placed in an EDTA-K2 anticoagulant tube. Plasma was centrifugally separated (centrifugation conditions: 1,500 g, 10 minutes). The collected upper plasma was stored al −40° C. to −20° C. before analysis.
Contents of the compound to be tested in mouse plasma after intravenous and intragastric administration were determined by LC-MS/MS.

[3] = Metabolic stability in dog liver microsomes; assay type: in vitro ADME
Procedure: as §1, §2, §3

[4] = iv, injection administration 1 mg/kg
[5] = po, intragastric administration 5 mg/kg

half-life at 1 μM ([1]; mouse liver microsomes 0.5 mg/mL, 1 μM compound, NADPH, read-out: Half-life period (T1/2 min) Mouse): 5.53 h
AUC(0-t) [2, 4]: 1.24 µg·h/mL
half-life [2, 4]: 0.664 h
bioavailability ([2]; po, intragastric 5 mg/kg vs injection 1 mg/kg, read-out: Bioavailability F(%)): 69.8%
Cmax ([2]; po, intragastric administration 5 mg/kg, read-out: Blood concentration Cmax): 2.04 µg/mL
AUC(0-t) [2, 5]: 4.33 µg·h/mL
half-life [2, 5]: 1.84 h
half-life at 1 μM ([3]; dog liver microsomes 0.5 mg/mL, 1 μM compound, NADPH, read-out: Half-life period (T1/2 min) Dog): 15.3 h
SMILES: COCC[C@@H](C(=O)Nc1ccc2nn(C)cc2c1)N1CC(=O)N(c2cc(Cl)ccc2-n2cc(Cl)nn2)CC1=O [Example 96, (S)-2-(4-(5-chloro-2-(4-chloro-1H-1,2,3-triazol-1-yl)phenyl)-2,5-dioxopiperazin-1-yl)-4-methoxy-N-(2-methyl-2H-indazol-5-yl)butanamide]
Half-life period and stability compared with Comparative Example 1 ([1]; mouse liver microsomes, in words): longer half-life period and a higher stability
CT2 (human plasma): 5.3 µM
Half-life period and stability compared with Comparative Example 1 ([3]; dog liver microsomes, in words): longer half-life period and a higher stability
